Assay results from patent US20070117836A1, “NAPTHALIMIDE DERIVATIVES, METHODS FOR THEIR PRODUCTION AND PHARMACEUTICAL COMPOSITIONS THEREFROM” (priority 2004, published 2007).
Read-outs that look alike come from different tables or passages of the source.

Experiments:
in vivo = conditions: mouse
Protocol: The maximum tolerated dose (herein after MTD) is defined as the maximum amount of a given drug which can be administered acutely (i.e. in one intraperitoneal, intravenous, subcutaneous or oral single dose) to healthy animals, i.e. animals not grafted with tumors. The survival times and weights of the animals are recorded up to 14 days post injection. Five different doses of each drug are used for the determination of the MTD index. […] Each experimental group comprised 3 mice for the determination of the MTD index (expressed in mg/kg).

[1] = tested on: Six human cancer cell lines (Hs683, U-373MG, HCT-15, LoVo, A549, MCF-7); experiment: MTT test of overall cell growth; format: cell-based
Protocol: In order to characterize the in vitro activity of the compounds of the invention, MTT tests were performed to indirectly and rapidly measure, i.e. within 5 days, the effect of such a compound on the overall cell growth. The test measures the number of metabolically active living cells that are able to transform the yellow product 3-(4,5-dimethylthiazol-2-yl)-2,5-diphenyl tetrazolium bromide (herein referred as MTT) into the blue product formazan dye by mitochondrial reduction. The amount of formazan obtained at the end of the experiment was measured by means of a spectrophotometer and is directly proportional to the number of living cells. Determination of the optical density enables a quantitative measurement of the effect of the investigated compounds as compared to the control condition (untreated cells) and/or to other reference compounds (in casu mitonafide and amonafide).
Six human cancer cell lines described in table 1 were used in the MTT tests. These cell lines cover four histological cancer types, being glioma, colon, lung and breast cancers. Cells were allowed to grow in 96-well micro-wells with a flat bottom with an amount of 100 μl of cell suspension per well with 1,000 to 4,000 cells/well depending on the cell type used. Each cell line was seeded in an MEM 5% serum culture medium.
The detailed experimental procedure was as follows: after a 24-hour period of incubation at 37° C., the culture medium was replaced by 100 μl of fresh medium in which the compound to be tested was dissolved at the following molar concentrations: 10^−9 M, 5.10^−9 M, 10^−8 M, 5.10^−8 M, 10^−7 M, 5.10^−7 M, 10^−6 M, 5.10^−6 M and 10^−5 M. Each experiment was repeated 6 times.
After 72 hours of incubation at 37° C. with (experimental conditions) or without (control condition) the compound to be tested, the medium was replaced by 100 μl MTT dissolved in RPMI at a concentration of 1 mg/ml. The micro-wells were subsequently incubated during 3 hours at 37° C. and centrifuged at 400 g during 10 minutes. MTT was removed and formazan crystals formed were dissolved in 100 μl DMSO. The micro-wells were shaken for 5 minutes and read on a spectrophotometer at wavelengths of 570 nm (maximum formazan absorbance) and 630 nm (background noise).
For each experimental condition, the mean optical density was calculated, as well as the percentage of remaining living cells in comparison with the control.

[2] = Homo sapiens, 72 h, range of molar concentrations giving 50% inhibition of overall tumor cells growth, MTT, 72 hours incubation, six human cancer cell lines, read-out: IC50
[3] = range of molar concentrations giving 50% inhibition of overall tumor cells growth, MTT, 72 hours incubation, six human cancer cell lines, hydrochloride, read-out: IC50
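Throughout, for MTD: highest single acute dose (intraperitoneal, intravenous, subcutaneous or oral) tolerated by tumor-free mice, assessed across five dose levels per drug.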

SMILES | MTD at 14 days (in vivo) | IC50 [1, 2] | further results
CN(C)CCN1C(=O)c2cccc3cc(NCc4ccc5c(c4)OCO5)cc(c23)C1=O.Cl [Example 38, 5-{[1,3-benzodioxol-5-ylmethy]amino}-N-(2-[2-dimethylamino)ethyl]-1H-benzo[de]isoquinolin-1,3(2H)-dione hydrochloride] | > 80 mg/kg | – | –
CN(C)CCN1C(=O)c2cccc3cc(NCc4ccccc4OC4OC(CO)C(O)C(O)C4O)cc(c23)C1=O (stereo not drawn) [Example 37] | > 80 mg/kg | 5 to 10 µM | –
CN(C)CCN1C(=O)c2cccc3cc(NC(=O)C(Cl)(Cl)Cl)cc(c23)C1=O [Example 16, 2,2,2-trichloro-N-{2-[2-(dimethylamino)ethyl]-1,3-dioxo-2,3-dihydro-1H-benzo[de]isoquinolin-5-yl}acetamide] | > 80 mg/kg | > 10 µM | –
CN(C)CCN1C(=O)c2cccc3cc(NC(=O)NC(=O)c4ccccc4)cc(c23)C1=O [Example 3, N-[({2-[2-(dimethylamino)ethyl]-1.3-dioxo-2,3-dihydro-1H-benzo[de]isoquinolin-5-yl}amino)carbonyl]benzamide] | – | 1 to 5 µM | MTD at 14 days (in vivo; intraperitoneal): 80 mg/kg
CN(C)CCN1C(=O)c2cccc3cc(NCc4cc5c(cc4[N+](=O)[O-])OCO5)cc(c23)C1=O.Cl [Example 41] | > 80 mg/kg | – | –
CN(C)CCN1C(=O)c2cccc3cc(NC(=O)CCCCl)cc(c23)C1=O [Example 12, 4-chloro-N-{2-[2-(dimethylamino)ethyl]-1,3-dioxo-2,3-dihydro-1H-benzo[de]isoquinolin-5-yl}butanamide] | – | > 10 µM | –
CN(C)CCN1C(=O)c2cccc3cc(NC(=O)NC(=O)CCl)cc(c23)C1=O [Example 1, 2-chloro-N-[({2-[2-(dimethylamino)ethyl]-1,3-dioxo-2,3-dihydro-1H-benzo[de]isoquinolin-5-yl}amino)carbonyl]acetamide] | – | 1 to 5 µM | –
CN(C)CCN1C(=O)c2cccc3cc(NC(=O)c4ccccc4)cc(c23)C1=O [Example 32, 2-[2-(dimethylamino)ethyl]-1,3-dioxo-2,3-dihydro-1H-benzo[de]isoquinolin-5-ylbenzamide] | – | > 10 µM | –
CN(C)CCN1C(=O)c2cccc3cc(/N=C\c4cc(O)ccc4O)cc(c23)C1=O.Cl [Example 34, 2-[2-dimethylamino)ethyl]-5-{[(1Z)-(2,5-dihydroxyphenyl)methylene]amino}-1H-benzo[de]isoquinolin-1,3(2H)-dione hydrochloride] | – | – | IC50 ([1]; read-out: IC50): 1 to 5 µM
COc1cc(C=Nc2cc3c4c(cccc4c2)C(=O)N(CCN(C)C)C3=O)ccc1O [Example 18, 5-{[(1Z)-(4-hydroxy-3-methoxyphenyl)methylene]amino}-2-[2-(dimethylamino)ethyl]l-1H-benzo[de]isoquinoline-1,3(2H)-dione] | > 80 mg/kg | > 10 µM | –
CN(C)CCN1C(=O)c2cccc3cc(NC(=S)Nc4ccc(C#N)cc4)cc(c23)C1=O [Example 27, N-[2-[2-(dimethylamino)ethyl]-1,3-dioxo-2,3-dihydro-1H-benzo[de]isoquinolin-5-yl]-N′-(4-cyanophenyl)thiourea] | > 80 mg/kg | > 10 µM | –
CCOC(=O)c1ccc(NC(=O)Nc2cc3c4c(cccc4c2)C(=O)N(CCN(C)C)C3=O)cc1 [Example 8] | – | 1 to 5 µM | MTD at 14 days (in vivo; intraperitoneal): > 160 mg/kg
CN(C)CCN1C(=O)c2cccc3cc(NCc4cc5c(cc4[N+](=O)[O-])OCO5)cc(c23)C1=O.Cl [Example 41, 5-{[(benzo([1,3]dioxol-6-nitro)-5-ylmethyl]amino}-N-(2-[2-dimethylamino)ethyl]-1H-benzo[de]isoquinolin-1,3(2H)-dione hydrochloride] | – | – | IC50 [1, 3]: 5 to 10 µM
CN(C)CCN1C(=O)c2cccc3cc(NCc4ccc5c(c4)OCCO5)cc(c23)C1=O [Example 42] | > 80 mg/kg | 5 to 10 µM | –
COc1ccc(CC(=O)Nc2cc3c4c(cccc4c2)C(=O)N(CCN(C)C)C3=O)cc1 [Example 15, 2-(4-methoxyphenyl)-N-{2-[2-(dimethyl-amino)ethyl]-1,3-dioxo-2,3-dihydro-1H-benzo[de]isoquinolin-5-yl}acetamide] | – | 1 to 5 µM | –
COc1ccc(NC(=O)Nc2cc3c4c(cccc4c2)C(=O)N(CCN(C)C)C3=O)cc1 [Example 30] | – | 1 to 5 µM | –

SMILES | MTD at 14 days (in vivo) | IC50 [1, 2] | further results
CN(C)CCN1C(=O)c2cccc3cc(NCc4ccccc4OC4OC(CO)C(O)C(O)C4O)cc(c23)C1=O.Cl (stereo not drawn) [Example 39] | > 80 mg/kg | – | –
CN(C)CCN1C(=O)c2cccc3cc(NC(=S)NCc4ccc5c(c4)OCO5)cc(c23)C1=O [Example 22] | > 80 mg/kg | > 10 µM | –
CN(C)CCN1C(=O)c2cccc3cc(NC(=O)Nc4ccc(Cl)cc4)cc(c23)C1=O [Example 6, N-[2-[2-(dimethylamino)ethyl]-1,3-dioxo-2,3-dihydro-1H-benzo[de]isoquinolin-5-yl]-N′-(4-chlorophenyl)urea] | – | 1 to 5 µM | MTD at 14 days (in vivo; intraperitoneal): > 160 mg/kg
CN(C)CCN1C(=O)c2cccc3cc(N=Cc4ccc(C#N)cc4)cc(c23)C1=O [Example 28, 2-[2-dimethylamino)ethyl]-5-{[(1Z)-(4-cyano-phenyl)-5-ylmethylene]amino}-1H-benzo[de]isoquinolin-1,3(2H)-dione] | > 80 mg/kg | 5 to 10 µM | –
CN(C)CCN1C(=O)c2cccc3cc(NC(=S)Nc4ccc(OC(F)(F)F)cc4)cc(c23)C1=O [Example 21] | – | 1 to 5 µM | –
COc1cc(/C=N\c2cc3c4c(cccc4c2)C(=O)N(CCN(C)C)C3=O)cc(OC)c1OC [Example 20, 2-[2-(dimethylamino)ethyl]-5-{[(1Z)-(3,4,5-trimethoxyphenyl)methylene]amino}-1H-benzo[de]isoquinoline-1,3(2H)-dione] | > 80 mg/kg | 5 to 10 µM | –
CN(C)CCN1C(=O)c2cccc3cc(NCc4cc5c(cc4[N+](=O)[O-])OCO5)cc(c23)C1=O [Example 40] | > 80 mg/kg | > 10 µM | –
CCOC(=O)CC(=O)Nc1cc2c3c(cccc3c1)C(=O)N(CCN(C)C)C2=O [Example 14, ethyl 3-({2-[2-(dimethylamino)ethyl]-1,3-dioxo-2,3-dihydro-1H-benzo[de]isoquinolin-5-yl}amino)-3-oxopropanoate] | – | > 10 µM | –
COc1ccc(OC(=O)Nc2cc3c4c(cccc4c2)C(=O)N(CCN(C)C)C3=O)cc1 [Example 31] | – | – | IC50 ([1]; Homo sapiens, 72 h): 10 µM
CN(C)CCN1C(=O)c2cccc3cc(NC(=O)NCCCl)cc(c23)C1=O [Example 5, N-[2-[2-(dimethylamino)ethyl]-1,3-dioxo-2,3-dihydro-1H-benzo[de]isoquinolin-5-yl]-N′-(2-chloroethyl)urea] | > 160 mg/kg | – | IC50 ([1]; Homo sapiens, 72 h): 1 to 5 µM
CN(C)CCN1C(=O)c2cccc3cc(NC(=O)Cc4ccc(Cl)cc4)cc(c23)C1=O [Example 13, 2-(4-chlorophenyl)-N-{2-[2-(dimethylamino)ethyl]-1,3-dioxo-2,3-dihydro-1H-benzo[de]isoquinolin-5-yl}acetamide] | – | 5 to 10 µM | –
CN(C)CCN1C(=O)c2cccc3cc(NCc4ccc5c(c4)OCO5)cc(c23)C1=O [Example 36, 5-{[1,3-benzodioxol-5-ylmethyl]amino}-N-(2-[2-dimethylamino)ethyl]-1H-benzo[de]isoquinolin-1,3(2H)-dione] | > 80 mg/kg | 5 to 10 µM | –
CCOC(=O)CCC(=O)Nc1cc2c3c(cccc3c1)C(=O)N(CCN(C)C)C2=O [Example 11] | – | > 10 µM | MTD at 14 days (in vivo; intraperitoneal): > 160 mg/kg
CCOC(=O)NC(=O)Nc1cc2c3c(cccc3c1)C(=O)N(CCN(C)C)C2=O [Example 4, ethyl({2-[2-(dimethylamino)ethyl]-1.3-dioxo-2,3-dihydro-1H-benzo[de]isoquinolin-5-yl}amino)carbonylcarbamate] | 80 mg/kg | 1 to 5 µM | –
CN(C)CCN1C(=O)c2cccc3cc(NCc4ccccc4OC4OC(CO)C(O)C(O)C4O)cc(c23)C1=O.Cl (stereo not drawn) [Example 39, 5-{[2-(2-phenoxy-)-6-hydroxymethyltetrahydro-pyran-3,4,5-triol)-5-ylmethyl]amino}-N-(2-[2-dimethylamino)ethyl]-1H-benzo [de]isoquinolin-1,3(2H)-dione hydrochloride] | – | – | IC50 [1, 3]: > 10 µM
CN(C)CCN1C(=O)c2cccc3cc(NC(=O)C(F)(F)F)cc(c23)C1=O [Example 29, 2,2,2-trifluoro-N-{2-[2-(dimethylamino)ethyl]-1,3-dioxo-2,3-dihydro-1H-benzo[de]isoquinolin-5-yl}acetamide] | – | 5 to 10 µM | –
